Converted amounts (≈) assume the structure as drawn.
Columns and labels:
[1] = Intrinsic clearance in presence of human microsomes; type: in vitro ADME; conditions: read-out: Clint hm (intrinsic clearance, human microsomes)
Excerpt: (§1) Fig 2 Optimization stages of Ugi products as TLR4 agonists. *Human TLR-4 NFκB SEAP reporter assays; protocol as described in Methods. Data are reported as pEC50, or negative log of the EC50 values. **Clint rh / hm represents intrinsic clearance in presence of rat hepatocytes (μL/min/10^6 cells) and human microsomes (μL/min/mg protein). […] Thus a drug molecule with LogD >4 might be considered to be very lipophilic and therefore more likely to suffer from rapid metabolic turnover, poor solubility and receptor promiscuity; whereas a LogD range of 1–3 is more likely to be associated with optimal physicochemical and drug-like properties. ^††Solubility was measured by dissolution of solid samples in buffer at pH 7.4.

[2] = Solubility by dissolution of solid samples in buffer; type: physicochemical; conditions: aqueous buffer, thermodynamic from solid; solid samples in buffer at pH 7.4
Excerpt: as §1

rat PBMCs = test: Cytokine induction in rat PBMCs (rat MILLIPLEX); type: cell-based, Sprague-Dawley rat; conditions: 1 and 0.2 μg/ml, 24 h
Protocol: (§2) Splenocytes were isolated from naïve BALB/c mice by dissociating spleens with a GentleMACS (Miltenyi) instrument, then filtration through […] screens. For other species, blood was obtained through venipuncture or cardiac puncture into heparinized tubes, then diluted 1:1 with PBS or HBSS and layered onto Ficoll-Histopaque (GE Healthcare) for blood from healthy human volunteers and cynomolgus macaques, Lympholyte-Mammal (Cedarlane Labs) for New Zealand white rabbits, Sprague-Dawley rats, Hartley guinea pigs, cotton rats, and ferrets, followed by standard density centrifugation techniques. […]
(§3) PBMCs (human, cynomolgus macaque, guinea pig, ferret, rabbit, rat, and cotton rat) or splenocytes (mouse) were seeded onto 96-well flat bottom plates at 5 x 10^5 cells/well and stimulated with TLR4 agonists at 1 and 0.2 μg/ml for 24 h at 37°C. […] For human, cyno, mouse, and rat, cell-free SNs were analyzed via human, NHP, mouse, and rat MILLIPLEX kits. For GP, ferret, rabbit, and CR, cells were lysed by Millipore lysing buffer and snap frozen at -70 C until ready for analysis by Affymetrix QuantiGene 2.0 Plex kits. […] Signal was detected using a Bioplex 200 instrument (BioRad). […]
Fig 8 Secreted cytokine profile of rat PBMCs stimulated by AZ618. […] SNs were analyzed via rat MILLIPLEX kits. Data are expressed as the means of 3 rats at the 1 μg/ml dose of TLR4 agonist and are representative of 2 studies. […]

cotton rat PBMCs = test: Cytokine gene expression in cotton rat PBMCs (QuantiGene Plex); type: cell-based; conditions: 1 μg/ml, 24 h
Protocol: as §2, §3
Fig 9 Species-specific activation of IL-6, TNF-α, and chemokine expression in primary cells. […] For human, cyno, mouse, and rat, SNs were analyzed via human, NHP, mouse, and rat MILLIPLEX kits. […]

microsomal CLint [1] [µL/min/mg]	solubility [2] [µM]	Compound	response in rat PBMCs (cytokine secretion) (rat PBMCs)	activation of cotton rat PBMCs (cotton rat PBMCs)
< 3	129 (≈ 82.4 µg/mL)	O=C(O)Cc1ccc(C(C(=O)NC2CCCC2)N(C(=O)c2cc(-c3ccccc3)n(-c3ccccc3)n2)c2ccc3c(c2)CCC3)cc1 (stereo not shown) [AZ617]	–	–
–	–	Cc1cc(C)cc(N(C(=O)c2cc(-c3ccccc3)n(-c3ccccc3)n2)C(C(=O)NC2CCCC2)c2ccc(CC(=O)O)cc2)c1 (stereo not shown) [AZ618, 2-(4-(2-(cyclopentylamino)-1-(N-(3,5-dimethylphenyl)-1,5-diphenyl-1H-pyrazole-3-carboxamido)-2-oxoethyl)phenyl)acetic acid]	comparable to that induced by MPL	able to activate

Source: article PMC5063506, “A Novel Class of Small Molecule Agonists with Preference for Human over Mouse TLR4 Activation” (PLoS ONE, 2016)
